Consider 14 compounds from patent publication EP4667467A1, “PROTAC DEGRADERS OF MLLT1 AND/OR MLLT3” (Dark Blue Therapeutics Ltd, priority 2024, dated 2025).

The target of the test is T1, MLLT1 (Homo sapiens, UniProt Q03111).
T1 construct: endogenous in cells; host or cells: MV4-11 (ATCC CRL-9591)
T1 sequence (Q03111 1-559): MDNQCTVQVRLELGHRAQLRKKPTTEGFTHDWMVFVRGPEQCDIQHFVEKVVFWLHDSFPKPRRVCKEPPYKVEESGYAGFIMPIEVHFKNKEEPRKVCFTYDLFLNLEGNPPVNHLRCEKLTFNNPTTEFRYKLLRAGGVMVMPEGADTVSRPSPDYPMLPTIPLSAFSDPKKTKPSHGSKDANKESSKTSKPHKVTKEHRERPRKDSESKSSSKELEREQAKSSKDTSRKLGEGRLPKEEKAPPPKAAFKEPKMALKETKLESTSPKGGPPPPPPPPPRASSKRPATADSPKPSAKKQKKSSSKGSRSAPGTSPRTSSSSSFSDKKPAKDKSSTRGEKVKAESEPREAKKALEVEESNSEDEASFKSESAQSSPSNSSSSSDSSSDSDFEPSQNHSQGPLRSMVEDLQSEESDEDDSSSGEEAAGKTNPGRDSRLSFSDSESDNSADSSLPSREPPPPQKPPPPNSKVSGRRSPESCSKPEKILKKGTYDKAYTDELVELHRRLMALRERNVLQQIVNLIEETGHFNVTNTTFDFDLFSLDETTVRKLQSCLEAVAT
The experiment in a line: MLLT1 Degradation Assay (JESS automated chemiluminescent detection, MV4-11 cells). The settings on record: 24h, with respect to DMSO control; for MLLT1 % Degradation @ 0.1 µM: 0.1 µM (100 nM) test compound; for MLLT 1 % Degradation @ 1 µM: 1 µM (1000 nM) test compound; for MLLT1 % Degradation @ 0.01 µM: 0.01 µM (10 nM) test compound. It is filed as cell-based. The method, boiled down: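 MV4-11 cells were treated for 24 h at 37 °C, 5% CO2 with compound at 1000, 100 and 10 nM (0.1% DMSO). MLLT1 was quantified by automated capillary chemiluminescent immunodetection (JESS). Band peak areas were expressed as % degradation relative to DMSO control.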

As to `CN1CCC[C@@H]1c1cc2cnc(NC(=O)CCCCCC3CCN(c4cccc5c4C(=O)N(C4CCC(=O)NC4=O)C5=O)CC3)cc2[nH]1` (stereo partly drawn) [Example 43, 6-(1-(2-(2,6-dioxopiperidin-3-yl)-1,3-dioxoisoindolin-4-yl)piperidin-4-yl)-N-(2-((R)-1-methylpyrrolidin-2-yl)-1H-pyrrolo[3,2-c]pyridin-6-yl)hexanamide], the “MLLT1 % Degradation @ 0.1 µM” value is recorded as “A (Category A: A ≥ 75% degradation)” and the “MLLT 1 % Degradation @ 1 µM” value is reported as “B (Category B: 50% ≤ B < 75% degradation)”.
As for `CN1CCC[C@@H]1c1cc2cnc(NC(=O)CCCC3CCCN(c4cccc5c4C(=O)N(C4CCC(=O)NC4=O)C5=O)C3)cc2[nH]1` (stereo partly drawn) [Example 44, 4-(1-(2-(2,6-dioxopiperidin-3-yl)-1,3-dioxoisoindolin-4-yl)piperidin-3-yl)-N-(2-((R)-1-methylpyrrolidin-2-yl)-1H-pyrrolo[3,2-c]pyridin-6-yl)butanamide], the “MLLT1 % Degradation @ 0.1 µM” value is listed as “C (Category C: 25% ≤ C < 50% degradation)” and the “MLLT 1 % Degradation @ 1 µM” value was “C (Category C: 25% ≤ C < 50% degradation)”.
As to `CN1CCC[C@@H]1c1cc2cnc(NC(=O)c3cccc(CCCNc4cccc5c4C(=O)N(C4CCC(=O)NC4=O)C5=O)c3)cc2[nH]1` (stereo partly drawn) [Example 45, 3-(3-((2-(2,6-dioxopiperidin-3-yl)-1,3-dioxoisoindolin-4-yl)amino)propyl)-N-(2-((R)-1-methylpyrrolidin-2-yl)-1H-pyrrolo[3,2-c]pyridin-6-yl)benzamide], the “MLLT1 % Degradation @ 0.01 µM” value is given as “A (Category A: A ≥ 75% degradation)”, the “MLLT1 % Degradation @ 0.1 µM” value is given as “A (Category A: A ≥ 75% degradation)” and the “MLLT 1 % Degradation @ 1 µM” value was “A (Category A: A ≥ 75% degradation)”.
With `CN1CCC[C@@H]1c1cc2cnc(NC(=O)c3ccc(CCC#Cc4cccc5c4CN(C4CCC(=O)NC4=O)C5=O)cn3)cc2[nH]1` (stereo partly drawn) [Example 49, 5-(4-(2-(2,6-dioxopiperidin-3-yl)-1-oxoisoindolin-4-yl)but-3-yn-1-yl)-N-(2-((R)-1-methylpyrrolidin-2-yl)-1H-pyrrolo[3,2-c]pyridin-6-yl)picolinamide], the “MLLT1 % Degradation @ 0.01 µM” value is “D (Category D: D < 25% degradation)”, the “MLLT1 % Degradation @ 0.1 µM” value is on record as “D (Category D: D < 25% degradation)” and the “MLLT 1 % Degradation @ 1 µM” value is listed as “C (Category C: 25% ≤ C < 50% degradation)”.
Take `CN1CCCC1c1cc2cnc(NC(=O)c3ccc(OCC#Cc4cccc5c4CN(C4CCC(=O)NC4=O)C5=O)cn3)cc2[nH]1` (stereo not shown) [Example 50, 5-[3-[2-(2,6-dioxo-3-piperidyl)-1-oxo-isoindolin-4-yl]prop-2-ynoxy]-N-[2-(1-methylpyrrolidin-2-yl)-1H-pyrrolo[3,2-c]pyridin-6-yl]pyridine-2-carboxamide]: the “MLLT1 % Degradation @ 0.01 µM” value is recorded as “B (Category B: 50% ≤ B < 75% degradation)”, the “MLLT1 % Degradation @ 0.1 µM” value is recorded as “B (Category B: 50% ≤ B < 75% degradation)” and the “MLLT 1 % Degradation @ 1 µM” value is reported as “B (Category B: 50% ≤ B < 75% degradation)”.
For the compound `CN1CCC[C@@H]1c1cc2cnc(NC(=O)c3ccc(OCC#Cc4cccc5c4CN(C4CCC(=O)NC4=O)C5=O)cc3)cc2[nH]1` (stereo partly drawn) [Example 51, 4-((3-(2-(2,6-dioxopiperidin-3-yl)-1-oxoisoindolin-4-yl)prop-2-yn-1-yl)oxy)-N-(2-((R)-1-methylpyrrolidin-2-yl)-1H-pyrrolo[3,2-c]pyridin-6-yl)benzamide], the “MLLT1 % Degradation @ 0.01 µM” value was “A (Category A: A ≥ 75% degradation)”, the “MLLT1 % Degradation @ 0.1 µM” value is “A (Category A: A ≥ 75% degradation)” and the “MLLT 1 % Degradation @ 1 µM” value is recorded as “A (Category A: A ≥ 75% degradation)”.
Take `CN1CCC[C@@H]1c1cc2cnc(NC(=O)c3ccc(CCC#Cc4cccc5c4CN(C4CCC(=O)NC4=O)C5=O)cc3)cc2[nH]1` (stereo partly drawn) [Example 52, 4-(4-(2-(2,6-dioxopiperidin-3-yl)-1-oxoisoindolin-4-yl)but-3-yn-1-yl)-N-(2-((R)-1-methylpyrrolidin-2-yl)-1H-pyrrolo[3,2-c]pyridin-6-yl)benzamide]: the “MLLT1 % Degradation @ 0.01 µM” value was “A (Category A: A ≥ 75% degradation)”, the “MLLT1 % Degradation @ 0.1 µM” value was “A (Category A: A ≥ 75% degradation)” and the “MLLT 1 % Degradation @ 1 µM” value was “B (Category B: 50% ≤ B < 75% degradation)”.
Regarding `CN1CCC[C@@H]1c1cc2cnc(NC(=O)c3ccc(CCC#Cc4cccc5c4n(C)c(=O)n5C4CCC(=O)NC4=O)cc3)cc2[nH]1` (stereo partly drawn) [Example 53, 4-(4-(1-(2,6-dioxopiperidin-3-yl)-3-methyl-2-oxo-2,3-dihydro-1H-benzo[d]imidazol-4-yl)but-3-yn-1-yl)-N-(2-((R)-1-methylpyrrolidin-2-yl)-1H-pyrrolo[3,2-c]pyridin-6-yl)benzamide], the “MLLT1 % Degradation @ 0.01 µM” value is “A (Category A: A ≥ 75% degradation)”, the “MLLT1 % Degradation @ 0.1 µM” value was “A (Category A: A ≥ 75% degradation)” and the “MLLT 1 % Degradation @ 1 µM” value is recorded as “B (Category B: 50% ≤ B < 75% degradation)”.
As to `CN1CCC[C@@H]1c1cc2cnc(NC(=O)c3ccc(CCC#Cc4cccc5c4CN(C4CCC(=O)NC4=O)C5=O)cc3F)cc2[nH]1` (stereo partly drawn) [Example 54, 4-(4-(2-(2,6-dioxopiperidin-3-yl)-1-oxoisoindolin-4-yl)but-3-yn-1-yl)-2-fluoro-N-(2-((R)-1-methylpyrrolidin-2-yl)-1H-pyrrolo [3,2-c]pyridin-6-yl) benzamide], the “MLLT1 % Degradation @ 0.01 µM” value is “A (Category A: A ≥ 75% degradation)”, the “MLLT1 % Degradation @ 0.1 µM” value is on record as “A (Category A: A ≥ 75% degradation)” and the “MLLT 1 % Degradation @ 1 µM” value is “B (Category B: 50% ≤ B < 75% degradation)”.
As for `CN1CCC[C@@H]1c1cc2cnc(NC(=O)c3ccc(CCCC#Cc4cccc5c4CN(C4CCC(=O)NC4=O)C5=O)cc3)cc2[nH]1` (stereo partly drawn) [Example 55, 4-(5-(2-(2,6-dioxopiperidin-3-yl)-1-oxoisoindolin-4-yl)pent-4-yn-1-yl)-N-(2-((R)-1-methylpyrrolidin-2-yl)-1H-pyrrolo[3,2-c]pyridin-6-yl)benzamide], the “MLLT1 % Degradation @ 0.01 µM” value is given as “A (Category A: A ≥ 75% degradation)”, the “MLLT1 % Degradation @ 0.1 µM” value is given as “A (Category A: A ≥ 75% degradation)” and the “MLLT 1 % Degradation @ 1 µM” value is “A (Category A: A ≥ 75% degradation)”.
For `CN1CCC[C@@H]1c1cc2cnc(NC(=O)c3ccc(OCCCC#Cc4cccc5c4CN(C4CCC(=O)NC4=O)C5=O)cc3)cc2[nH]1` (stereo partly drawn) [Example 56, 4-((5-(2-(2,6-dioxopiperidin-3-yl)-1-oxoisoindolin-4-yl)pent-4-yn-1-yl)oxy)-N-(2-((R)-1-methylpyrrolidin-2-yl)-1H-pyrrolo[3,2-c]pyridin-6-yl)benzamide], the “MLLT1 % Degradation @ 0.01 µM” value is reported as “A (Category A: A ≥ 75% degradation)”, the “MLLT1 % Degradation @ 0.1 µM” value is on record as “A (Category A: A ≥ 75% degradation)” and the “MLLT 1 % Degradation @ 1 µM” value is “A (Category A: A ≥ 75% degradation)”.
As for `CN1CCC[C@@H]1c1cc2cnc(NC(=O)c3ccc(OCC#Cc4cccc5c4CN(C4CCC(=O)NC4=O)C5=O)cc3F)cc2[nH]1` (stereo partly drawn) [Example 57, 4-((3-(2-(2,6-dioxopiperidin-3-yl)-1-oxoisoindolin-4-yl)prop-2-yn-1-yl)oxy)-2-fluoro-N-(2-((R)-1-methylpyrrolidin-2-yl)-1H-pyrrolo[3,2-c]pyridin-6-yl)benzamide], the “MLLT1 % Degradation @ 0.01 µM” value is recorded as “A (Category A: A ≥ 75% degradation)”, the “MLLT1 % Degradation @ 0.1 µM” value is given as “A (Category A: A ≥ 75% degradation)” and the “MLLT 1 % Degradation @ 1 µM” value is reported as “A (Category A: A ≥ 75% degradation)”.
For `CN1CCC[C@@H]1c1cc2cnc(NC(=O)c3cccc(OCC#Cc4cccc5c4CN(C4CCC(=O)NC4=O)C5=O)c3)cc2[nH]1` (stereo partly drawn) [Example 58, 3-((3-(2-(2,6-dioxopiperidin-3-yl)-1-oxoisoindolin-4-yl)prop-2-yn-1-yl)oxy)-N-(2-((R)-1-methylpyrrolidin-2-yl)-1H-pyrrolo[3,2-c]pyridin-6-yl)benzamide], the “MLLT1 % Degradation @ 0.01 µM” value is on record as “B (Category B: 50% ≤ B < 75% degradation)”, the “MLLT1 % Degradation @ 0.1 µM” value is recorded as “A (Category A: A ≥ 75% degradation)” and the “MLLT 1 % Degradation @ 1 µM” value is “C (Category C: 25% ≤ C < 50% degradation)”.
Turning to `CN1CCC[C@@H]1c1cc2cnc(NC(=O)c3ccc(-c4cnn(CCCCC#Cc5cccc6c5CN(C5CCC(=O)NC5=O)C6=O)c4)cc3)cc2[nH]1` (stereo partly drawn) [Example 59, 4-(1-(6-(2-(2,6-dioxopiperidin-3-yl)-1-oxoisoindolin-4-yl)hex-5-yn-1-yl)-1H-pyrazol-4-yl)-N-(2-((R)-1-methylpyrrolidin-2-yl)-1H-pyrrolo[3,2-c]pyridin-6-yl)benzamide], the “MLLT1 % Degradation @ 0.01 µM” value is on record as “A (Category A: A ≥ 75% degradation)”, the “MLLT1 % Degradation @ 0.1 µM” value is reported as “A (Category A: A ≥ 75% degradation)” and the “MLLT 1 % Degradation @ 1 µM” value is “B (Category B: 50% ≤ B < 75% degradation)”.
